Assay results from PMC3265452 (PLoS Neglected Tropical Diseases, 2012).
Structures can show the parent of a compound that is named as a salt. Where two headings read alike, the source gives them in different places.

Biological target: AaDOP2 (Aedes aegypti, UniProt H6D5H2)
Assay: AaDOP2 antagonist screen of the LOPAC1280 library (HEK-CRELuc-Aadop2 cells, luminescence)
Type: cell-based
[1] = 10 µM compound, 300 nM dopamine, 2 hr, hit = compound effect <20

Chain of AaDOP2 (H6D5H2 1-476): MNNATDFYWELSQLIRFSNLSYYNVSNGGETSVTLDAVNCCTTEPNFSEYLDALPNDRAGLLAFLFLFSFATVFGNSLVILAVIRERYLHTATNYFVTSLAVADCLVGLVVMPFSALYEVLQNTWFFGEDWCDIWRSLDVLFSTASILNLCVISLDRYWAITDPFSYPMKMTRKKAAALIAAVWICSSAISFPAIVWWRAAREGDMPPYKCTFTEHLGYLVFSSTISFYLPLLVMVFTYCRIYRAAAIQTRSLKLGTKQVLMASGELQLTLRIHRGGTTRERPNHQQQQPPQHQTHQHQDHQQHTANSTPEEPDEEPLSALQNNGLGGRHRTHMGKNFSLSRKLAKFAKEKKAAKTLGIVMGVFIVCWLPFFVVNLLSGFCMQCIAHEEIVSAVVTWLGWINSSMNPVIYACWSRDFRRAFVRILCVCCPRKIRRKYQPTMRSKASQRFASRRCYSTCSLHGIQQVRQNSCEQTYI

SMILES	Compound effect (percent receptor signaling in presence of test compound, relative lux units relative to the SCH23390 control)	Compound effect (percent receptor signaling in presence of test compound, relative lux units relative to the SCH23390 control) [1]
Nc1ncnc2c1ncn2[C@@H]1O[C@H](COP(=O)(O)OP(=O)(O)OP(=O)(O)OP(=O)(O)OC[C@H]2O[C@@H](n3cnc4c(N)ncnc43)[C@H](O)[C@@H]2O)[C@@H](O)[C@H]1O [Compound 360, P1,P4-Di(adenosine-5')tetraphosphate triammonium]	75	
N=C(N)N1CCc2ccccc2C1 [Compound 361, Debrisoquin sulfate]	86	
Cc1cn([C@H]2C=C[C@@H](CO)O2)c(=O)[nH]c1=O [Compound 362, 2',3'-didehydro-3'-deoxythymidine]	99	
O=C(CCCN1CC=C(n2c(=O)[nH]c3ccccc32)CC1)c1ccc(F)cc1 [Compound 363, Droperidol]	58	
COC(=O)[C@@H](N)Cc1ccc(O)c(O)c1.Cl [Compound 364, L-3,4-Dihydroxyphenylalanine methyl ester hydrochloride]	90	
OC[C@H]1NC[C@@H](O)[C@@H]1O [Compound 365, 1,4-Dideoxy-1,4-imino-D-arabinitol]	103	
O=[N+]([O-])c1ccc(O[C@@H]2O[C@H](CO)[C@@H](O)[C@H](O)[C@H]2F)c([N+](=O)[O-])c1 [Compound 366, 2,4-Dinitrophenyl 2-fluoro-2-deoxy-beta-D-glucopyranoside]	75	
OC[C@H]1O[C@@H](n2cnc3ccccc32)[C@H](O)[C@@H]1O [Compound 367, D-ribofuranosylbenzimidazole]		24%
COc1ccc([C@@H]2Sc3ccccc3N(CCN(C)C)C(=O)[C@@H]2OC(C)=O)cc1 [Compound 369, Diltiazem hydrochloride]	107	
Br.COc1ccc2c(c1)[C@]13CCCC[C@@H]1[C@H](C2)N(C)CC3.O [Compound 370, Dextromethorphan hydrobromide monohydrate]	102	
O=C(OCCN1CCCCC1)c1c[nH]c2ccccc12 [Compound 371, SB 203186]	84	
CN1C[C@H](C(=O)N[C@]2(C)O[C@@]3(O)[C@@H]4CCCN4C(=O)[C@H](Cc4ccccc4)N3C2=O)C[C@@H]2c3cccc4[nH]cc(c34)C[C@H]21 [Compound 372, Dihydroergotamine methanesulfonate]	46	
c1ccc2c(c1)[I+]c1ccccc1-2 [Compound 373, Diphenyleneiodonium chloride]	36	
CC(=O)C(C)=O [Compound 375, 2,3-Butanedione]	88	
CN(C)C(=O)N=NC(=O)N(C)C [Compound 376, N,N,N',N'-Tetramethylazodicarboxamide]		93%
N[C@H](C(=O)O)c1cc(O)cc(O)c1 [Compound 377, (S)-3,5-Dihydroxyphenylglycine]	93	
Cc1cc(N)c2ccccc2[n+]1CCCCCCCCCC[n+]1c(C)cc(N)c2ccccc21 [Compound 378, Dequalinium dichloride]	73	
CN(C)CCOC(C)(c1ccccc1)c1ccccn1 (stereo not shown) [Compound 379, Doxylamine succinate]	85	
CNCCCN1c2ccccc2CCc2ccccc21 [Compound 380, Desipramine hydrochloride]	29	
